Source: US12447156B2, “Treating progressive familial intrahepatic cholestasis (PFIC) with IBAT inhibitors” (ALBIREO AB, priority 2020, dated 2025)

Columns and labels:
Format in all cases: in vivo, human
[1] = tested on: patients with PFIC with prior PEBD surgery; assay: PEDFIC 1/2 post hoc subgroup: patients with prior partial external biliary diversion (PEBD)
Method: One surgical treatment option for patients with PFIC is partial external biliary diversion (PEBD), which can be used to reduce bile acid levels in patients with medically refractory pruritus. However, PEBD is not successful in all patients. […] This post hoc subgroup analysis evaluated the safety and efficacy of odevixibat in patients enrolled in the PEDFIC studies who had PEBD surgery prior to study entry.
In the double-blind PEDFIC 1 study, children with PFIC1 or PFIC2 were randomized to placebo or 40 or 120 μg/kg/day odevixibat for 24 weeks. In PEDFIC 2, an ongoing, open-label extension study, patients from PEDFIC 1 or newly enrolled patients with any PFIC subtype receive odevixibat 120 μg/kg/day. In both PEDFIC 1 and PEDFIC 2, eligible patients had elevated sBAs and significant pruritus at screening. Changes over time in sBA levels and observer-reported pruritus (range: 0-4; higher scores indicate worse symptoms), sleep parameters, and quality of life (QoL; assessed with the Pediatric Quality of Life Inventory [PedsQL]) were evaluated in the subgroup of patients from PEDFIC 1 and/or PEDFIC 2 with a medical history of PEBD surgery performed prior to study enrollment.

[2] = tested on: children with PFIC; assay: Pooled PEDFIC 1/2 subgroup analysis by concomitant UDCA and/or rifampicin; details: for patients meeting criteria for serum bile acid response: after 48 weeks; for mean proportion of positive pruritus assessments (PPAs): over 48 weeks
Method: Methods: In the double-blind PEDFIC 1 study, children with PFIC1 or PFIC2 were randomized to placebo or odevixibat 40 or 120 μg/kg/day for 24 weeks. In PEDFIC 2, an ongoing, open label extension study, patients from PEDFIC 1 or new patients with any PFIC subtype received odevixibat 120 μg/kg/day. Concomitant UDCA and/or rifampicin were allowed if the patient was on a stable dose. This pooled analysis includes up to 48 weeks of odevixibat treatment from PEDFIC 1 and through the PEDFIC 2 interim data cut (37 weeks; range: 1-108 weeks). Pre-specified subgroup analyses evaluated the following outcomes based on use of UDCA and/or rifampicin: serum bile acid response (i.e., ≥70% reduction from baseline or serum bile acid levels ≤70 μmol/L after 48 weeks), proportion of positive pruritus assessments (PPAs) at the patient level (i.e., scratching score ≤1 or a ≥1-point drop from baseline on the validated PRUCISION instrument) over the 48-week treatment period, and treatment-emergent adverse events (TEAEs).

[3] = tested on: patients with PFIC; assay: Pooled PEDFIC 1/2: relationships between changes in autotaxin, pruritus and serum bile acids (weeks 25-48)
Method: Phase 3 study data of 77 patients treated with odevisibat was pooled from the PEDFIC 1 and PEDFIC 2 studies. In PEDFIC 1, patients received placebo or odevixibat 40 or 120 μg/kg/day for 24 weeks; in PEFFIC 2, patients were enrolled in an ongoing extension study, with all patients receiving 120 μg/kg/day. At the data cutoff, 77 patients had received odevixibat. The median length of odevixibat treatment was 37 weeks, with a range of 1-108 weeks. Most patients (88%) were continuing on treatment. Characteristics of patients with available data at weeks 25-48 who were included in the current analyses were generally similar to the overall study population.
Autotaxin was assessed prior to treatment and throughout PEDFIC 1 and PEDFIC 2. Caregivers evaluated patients' pruritus using the validated PRUCISION scale, where scores range from 0 to 4; higher scores indicate worse symptoms. Serum bile acid measurements were taken at all study visits.
Relationships between changes from baseline to weeks 25-48 in autotaxin, pruritus, and serum bile acid levels were assessed as post hoc analyses. Changes from baseline were summarized descriptively. Pearson coefficients and P values were calculated for correlations. Responders were defined as ≥70% reduction from baseline in serum bile acids or serum bile acids ≤70 μmol/L at last assessment up to week 48 and/or pruritus score reduction of ≥1 point from baseline based on last available monthly or 12-week interval score up to week 48.
Values are based on last assessment up to week 48. For serum bile acids, this was the average value from weeks 46 and 48 when available; otherwise, the last available assessment in the interval was used. For pruritus, last monthly score was used when available; otherwise, the score from the last 12 weeks was used. For autotaxin, the last assessment within the interval was used.

[4] = of 10 patients with prior PEBD surgery
[5] = patients not using UDCA and/or rifampicin
[6] = patients using UDCA and/or rifampicin
[7] = patients analyzed in correlation analyses, N=44

CCCCC1(CCCC)CN(c2ccccc2)c2cc(SC)c(OCC(=O)N[C@@H](C(=O)N[C@@H](CC)C(=O)O)c3ccc(O)cc3)cc2S(=O)(=O)N1 [Odevixibat, 1,1-dioxo-3,3-dibutyl-5-phenyl-7-methylthio-8-(N-{(R)-α-[N-((S)-1-carboxypropyl)carbamoyl]-4-hydroxybenzyl}carbamoylmethoxy)-2,3,4,5-tetrahydro-1,2,5-benzothiadiazepine]
Pruritus Responder? ([1]; Patient 1 (prior PEBD, PFIC2; PEDFIC 1 placebo, PEDFIC 2 120 μg/kg/d; 42 weeks exposure)): N (N, no)
Change From Baseline in Pruritus Score ([1]; Patient 1 (prior PEBD, PFIC2; PEDFIC 1 placebo, PEDFIC 2 120 μg/kg/d; 42 weeks exposure), baseline 1.9): 0.1
Change From Baseline in sBAs ([1]; Patient 1 (prior PEBD, PFIC2; PEDFIC 1 placebo, PEDFIC 2 120 μg/kg/d; 42 weeks exposure), baseline 172): -18 µmol/L
Pruritus Responder? ([1]; Patient 2 (prior PEBD, PFIC1; PEDFIC 1 placebo, PEDFIC 2 120 μg/kg/d; 35 weeks exposure)): N (N, no)
Change From Baseline in Pruritus Score ([1]; Patient 2 (prior PEBD, PFIC1; PEDFIC 1 placebo, PEDFIC 2 120 μg/kg/d; 35 weeks exposure), baseline 3.8): −0.9
Change From Baseline in sBAs ([1]; Patient 2 (prior PEBD, PFIC1; PEDFIC 1 placebo, PEDFIC 2 120 μg/kg/d; 35 weeks exposure), baseline 225): -69.5 µmol/L
Pruritus Responder? ([1]; Patient 3 (prior PEBD, PFIC1; PEDFIC 1 40 μg/kg/d, PEDFIC 2 120 μg/kg/d; 44 weeks exposure)): Y (≥1-point drop in pruritus score at last assessment)
Change From Baseline in Pruritus Score ([1]; Patient 3 (prior PEBD, PFIC1; PEDFIC 1 40 μg/kg/d, PEDFIC 2 120 μg/kg/d; 44 weeks exposure), baseline 3.0): −2.1
Change From Baseline in sBAs ([1]; Patient 3 (prior PEBD, PFIC1; PEDFIC 1 40 μg/kg/d, PEDFIC 2 120 μg/kg/d; 44 weeks exposure), baseline 193): 197 µmol/L
Pruritus Responder? ([1]; Patient 4 (prior PEBD, PFIC1; PEDFIC 1 40 μg/kg/d, PEDFIC 2 120 μg/kg/d; 55 weeks exposure)): Y (≥1-point drop in pruritus score at last assessment)
Change From Baseline in Pruritus Score ([1]; Patient 4 (prior PEBD, PFIC1; PEDFIC 1 40 μg/kg/d, PEDFIC 2 120 μg/kg/d; 55 weeks exposure), baseline 3.0): −1.5
Change From Baseline in sBAs ([1]; Patient 4 (prior PEBD, PFIC1; PEDFIC 1 40 μg/kg/d, PEDFIC 2 120 μg/kg/d; 55 weeks exposure), baseline 163): -53.5 µmol/L
Pruritus Responder? ([1]; Patient 5 (prior PEBD, PFIC2; 120 μg/kg/d in PEDFIC 1 and 2; 53 weeks exposure)): N (N, no)
Change From Baseline in Pruritus Score ([1]; Patient 5 (prior PEBD, PFIC2; 120 μg/kg/d in PEDFIC 1 and 2; 53 weeks exposure), baseline 2.8): 0.3
Change From Baseline in sBAs ([1]; Patient 5 (prior PEBD, PFIC2; 120 μg/kg/d in PEDFIC 1 and 2; 53 weeks exposure), baseline 156.5): -11.5 µmol/L
Pruritus Responder? ([1]; Patient 6 (prior PEBD, PFIC2; 120 μg/kg/d in PEDFIC 1 and 2; 44 weeks exposure)): N (N, no)
Change From Baseline in Pruritus Score ([1]; Patient 6 (prior PEBD, PFIC2; 120 μg/kg/d in PEDFIC 1 and 2; 44 weeks exposure), baseline 3.0): 0.0
Change From Baseline in sBAs ([1]; Patient 6 (prior PEBD, PFIC2; 120 μg/kg/d in PEDFIC 1 and 2; 44 weeks exposure), baseline 237): 103 µmol/L
Pruritus Responder? ([1]; Patient 7 (prior PEBD, PFIC2; 120 μg/kg/d in PEDFIC 1 and 2; 54 weeks exposure, discontinued)): N (N, no)
Change From Baseline in Pruritus Score ([1]; Patient 7 (prior PEBD, PFIC2; 120 μg/kg/d in PEDFIC 1 and 2; 54 weeks exposure, discontinued), baseline 2.9): −0.3
Change From Baseline in sBAs ([1]; Patient 7 (prior PEBD, PFIC2; 120 μg/kg/d in PEDFIC 1 and 2; 54 weeks exposure, discontinued), baseline 208): 178 µmol/L
Pruritus Responder? ([1]; Patient 8 (prior PEBD, PFIC1; 120 μg/kg/d in PEDFIC 1 and 2; 47 weeks exposure)): Y (≥1-point drop in pruritus score at last assessment)
Change From Baseline in Pruritus Score ([1]; Patient 8 (prior PEBD, PFIC1; 120 μg/kg/d in PEDFIC 1 and 2; 47 weeks exposure), baseline 2.0): −2.1
Change From Baseline in sBAs ([1]; Patient 8 (prior PEBD, PFIC1; 120 μg/kg/d in PEDFIC 1 and 2; 47 weeks exposure), baseline 188.5): 61.5 µmol/L
Pruritus Responder? ([1]; Patient 9 (prior PEBD, PFIC1; PEDFIC 2 only, 120 μg/kg/d; 25 weeks exposure)): N (N, no)
Change From Baseline in Pruritus Score ([1]; Patient 9 (prior PEBD, PFIC1; PEDFIC 2 only, 120 μg/kg/d; 25 weeks exposure), baseline 2.0): −0.5
Change From Baseline in sBAs ([1]; Patient 9 (prior PEBD, PFIC1; PEDFIC 2 only, 120 μg/kg/d; 25 weeks exposure), baseline 139.5): 8.5 µmol/L
Pruritus Responder? ([1]; Patient 10 (prior PEBD, PFIC2; PEDFIC 2 only, 120 μg/kg/d; 35 weeks exposure)): Y (≥1-point drop in pruritus score at last assessment)
Change From Baseline in Pruritus Score ([1]; Patient 10 (prior PEBD, PFIC2; PEDFIC 2 only, 120 μg/kg/d; 35 weeks exposure), baseline 2.5): −1.5
Change From Baseline in sBAs ([1]; Patient 10 (prior PEBD, PFIC2; PEDFIC 2 only, 120 μg/kg/d; 35 weeks exposure), baseline 79.5): -70.5 µmol/L
patients who met criteria for pruritus response (≥1-point drop) [1, 4]: 4 patients
patients with reductions in pruritus score [1, 4]: 7 patients
patients with reductions in sBA levels [1, 4]: 5 patients
patients who met criteria for sBA response (reduced by ≥70% or ≤70 μmol/L) ([1]; of 10 patients with prior PEBD surgery, last assessment): 1 patient
patients with improved observer-reported PedsQL total scores ([1]; of the 9 prior-PEBD patients with post-baseline QoL assessments): 6 patients
tolerability ([1]; patients with prior PEBD surgery): generally well tolerated
patients with TEAEs ([1]; prior PEBD subgroup, 9 of 10 patients, all mild to moderate): 90%
patients meeting criteria for serum bile acid response ([2]; patients not using UDCA): 40%
patients meeting criteria for serum bile acid response [2, 5]: 67%
patients meeting criteria for serum bile acid response ([2]; patients not using rifampicin): 82%
patients meeting criteria for serum bile acid response ([2]; patients using UDCA): 74%
patients meeting criteria for serum bile acid response [2, 6]: 67%
patients meeting criteria for serum bile acid response ([2]; patients using rifampicin): 54%
mean proportion of positive pruritus assessments (PPAs) ([2]; patients not using UDCA): 72%
mean proportion of positive pruritus assessments (PPAs) [2, 5]: 69%
mean proportion of positive pruritus assessments (PPAs) ([2]; patients not using rifampicin): 81%
mean proportion of positive pruritus assessments (PPAs) ([2]; patients using UDCA): 65%
mean proportion of positive pruritus assessments (PPAs) [2, 6]: 66%
mean proportion of positive pruritus assessments (PPAs) ([2]; patients using rifampicin): 56%
incidence of TEAEs ([2]; patients not using UDCA): 87%
incidence of TEAEs [2, 5]: 90%
incidence of TEAEs ([2]; patients not using rifampicin): 86%
incidence of TEAEs ([2]; patients using UDCA): 77%
incidence of TEAEs [2, 6]: 78%
incidence of TEAEs ([2]; patients using rifampicin): 75%
Autotaxin, percentage change from baseline to weeks 25-48, mean (SE) ([3]; patients analyzed in correlation analyses, N=33): −50% (6%)
Autotaxin, change from baseline to weeks 25-48, mean (SE) ([3]; patients analyzed in correlation analyses, N=33, last assessment up to week 48): −1696 (266) ng/ml
Serum bile acids, change from baseline to weeks 25-48, mean (SE) [3, 7]: −140 (25) μmol/L
Serum bile acids, percentage change from baseline to weeks 25-48, mean (SE) [3, 7]: −49% (8%)
Pruritus score (range, 0-4), change from baseline to weeks 25-48, mean (SE) ([3]; patients analyzed in correlation analyses, N=44, PRUCISION scale): −1.4 (0.2)
effect on autotaxin, pruritus and serum bile acids ([3]; patients with PFIC): reduced autotaxin, pruritus, and serum bile acids
